Test results: patent US20240300976A1, “COMPOUNDS AS MODULATORS OF ENDOPLASMIC RETICULUM AMINOPEPTIDASE 1 (ERAP1)” (GREY WOLF THERAPEUTICS LIMITED, priority 2020, published 2024)
pIC50: −log10 of the molar value.

Target: T1, ERAP1 (Homo sapiens, UniProt Q9NZ08)
T1 construct: Purified ERAP1(37-941)-10His (ERAP1); 10His (C)
Assay: ERAP1 mediated hydrolysis of an amide substrate (10-mer inhibition assay), biochemical system
Details: 10-mer substrate, incubated at 23° C. for 1 h, excitation 279 nm and emission 355 nm; read-out: IC50 vs Decapeptide WRVYEKC(Dnp)ALK-acid (where Dnp is Dinitrophenyl maleimide) (10-mer)
Description: This peptide has minimal fluorescence as the N-terminal tryptophan residue's fluorescence is quenched by the dinitrophenol (DNP) residue within the peptide. However, as ERAP1 hydrolyses the N-terminal amide bond and tryptophan is released this internal quenching is lost and the reaction is monitored by the increase in tryptophan fluorescence over the course of the assay. For the purposes of this application this assay is referred to as the “1 Omer inhibition assay” and compound potencies are calculated and expressed as 1050 as would be familiar to a person skilled in the art.
Biological Assay 1: ERAP1 Mediated Hydrolysis of an Amide Substrate Measured in a Biochemical System
• 1× Assay buffer (AB): 25 mM Bis-tris propane, 0.05% w/v Hydroxypropylmethylcellulose pH 7.75 made with Optima grade water • Decapeptide WRVYEKC(Dnp)ALK-acid (where Dnp is Dinitrophenyl maleimide) (10-mer) • L-Leucine 7-amido-4-methylcoumarin (L-AMC) • Purified ERAP1(37-941)-10His (ERAP1)
12.5 μL ERAP1 enzyme in 1×AB was combined with 250 nL test compound in DMSO. 12.5 μL of either 240 μM L-AMC in 1×AB or 100 μM 10-mer in 1×AB was added to the reaction and incubated at 23° C. for 1 h. For detection, plates were read at excitation 365 nm and emission 442 nm (L-AMC) or excitation 279 nm and emission 355 nm (10-mer). Compound IC50 was determined using a 4-parameter equation.

T1 sequence (Q9NZ08 37-941): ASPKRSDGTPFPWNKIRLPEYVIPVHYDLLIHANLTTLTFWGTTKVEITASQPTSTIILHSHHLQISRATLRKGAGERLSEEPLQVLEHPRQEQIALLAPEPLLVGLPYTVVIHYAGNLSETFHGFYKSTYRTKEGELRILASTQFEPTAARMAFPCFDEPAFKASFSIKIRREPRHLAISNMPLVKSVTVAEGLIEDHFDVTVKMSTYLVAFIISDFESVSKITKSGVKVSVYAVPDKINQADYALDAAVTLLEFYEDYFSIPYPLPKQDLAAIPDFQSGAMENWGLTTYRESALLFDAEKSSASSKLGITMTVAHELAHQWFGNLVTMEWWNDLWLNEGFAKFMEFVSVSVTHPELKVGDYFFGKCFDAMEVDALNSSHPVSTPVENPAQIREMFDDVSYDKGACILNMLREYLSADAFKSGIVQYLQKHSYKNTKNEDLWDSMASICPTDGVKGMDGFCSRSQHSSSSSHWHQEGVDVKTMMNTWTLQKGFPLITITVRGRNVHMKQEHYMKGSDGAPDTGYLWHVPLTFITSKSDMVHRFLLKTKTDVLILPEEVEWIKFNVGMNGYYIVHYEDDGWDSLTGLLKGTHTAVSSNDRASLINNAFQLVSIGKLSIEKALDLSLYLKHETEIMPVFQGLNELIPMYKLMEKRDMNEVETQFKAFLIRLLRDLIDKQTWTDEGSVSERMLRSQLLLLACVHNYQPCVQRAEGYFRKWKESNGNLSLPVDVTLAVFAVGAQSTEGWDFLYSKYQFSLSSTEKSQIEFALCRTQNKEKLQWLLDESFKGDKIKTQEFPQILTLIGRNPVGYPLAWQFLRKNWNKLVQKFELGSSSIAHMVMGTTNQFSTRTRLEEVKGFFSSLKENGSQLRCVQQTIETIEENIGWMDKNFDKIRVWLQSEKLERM

`N#Cc1ccc2c(c1)NS(=O)(=O)c1cc(C(=O)O)ccc1OC/C=C/CC1CCCCN21` (single isomer, unassigned) [Example 33, (E)-2-cyano-7,8,9,9a,10,13-hexahydro-6H, 20H-dibenzo[b,f]pyrido[1,2-h][1]oxa[4]thia[5,8]diazacyclotridecine-17-carboxylic acid 19,19-dioxide] and `N#Cc1ccc2c(c1)NS(=O)(=O)c1cc(C(=O)O)ccc1OCCC1CCCCN21` (single isomer, unassigned) [Example 7, 2-cyano-7,8,9,9a,10,11-hexahydro-6H, 18H-dibenzo[b,f]pyrido[1,2-h][1]oxa[4]thia[5,8]diazacycloundecine-15-carboxylic acid 17,17-dioxide] cannot be ordered by pIC50: under 6.00 for the first, under 6.00 for the second.

`N#Cc1cc2c(cc1Cl)N1CCCC[C@@H]1CCCCOc1ccc(C(=O)O)cc1S(=O)(=O)N2` [Example 52, (R)-3-chloro-2-cyano-7,8,9,9a,10,11,12,13-octahydro-6H,20H-dibenzo[b,f]pyrido[1,2-h][1]oxa[4]thia[5,8]diazacyclotridecine-17-carboxylic acid 19,19-dioxide] and `N#Cc1cc2c(cc1Cl)N1CCCC[C@H]1CCCCOc1ccc(C(=O)O)cc1S(=O)(=O)N2` [Example 53, (S)-3-chloro-2-cyano-7,8,9,9a,10,11,12,13-octahydro-6H, 20H-dibenzo[b,f]pyrido[1,2-h][1]oxa[4]thia[5,8]diazacyclotridecine-17-carboxylic acid 19,19-dioxide] cannot be ordered by pIC50: over 6.60 for the first, over 6.60 for the second.

`N#Cc1ccc2c(c1)NS(=O)(=O)c1cc(C(=O)O)ccc1OCCCCC1CCCCN21` (racemic) [Example 4, 2-cyano-7,8,9,9a,10,11,12,13-octahydro-6H,20H-dibenzo[b,f]pyrido[1,2-h][1]oxa[4]thia[5,8]diazacyclotridecine-17-carboxylic acid 19,19-dioxide] and `N#Cc1ccc2c(c1)NS(=O)(=O)c1cc(C(=O)O)ccc1OCCCC1CCCCN21` (stereo not shown) [Example 5, 2-cyano-6,7,8,9,9a,10,11,12-octahydro-19H-dibenzo[b,f]pyrido[1,2-h][1]oxa[4]thia[5,8]diazacyclododecine-16-carboxylic acid 18,18-dioxide] cannot be ordered by pIC50: over 6.60 for the first, over 6.60 for the second.

`N#Cc1cc2c(cc1F)N1CCCCC1CCCCOc1ccc(C(=O)O)cc1S(=O)(=O)N2` (single isomer, unassigned) [Example 55, 2-cyano-3-fluoro-7,8,9,9a,10,11,12,13-octahydro-6H,20H-dibenzo[b,f]pyrido[1,2-h][1]oxa[4]thia[5,8]diazacyclotridecine-17-carboxylic acid 19,19-dioxide] and `N#Cc1cc2c(cc1F)N1CCCCC1CCCOc1ccc(C(=O)O)cc1S(=O)(=O)N2` (single isomer, unassigned) [Example 41, 2-cyano-3-fluoro-6,7,8,9,9a,10,11,12-octahydro-19H-dibenzo[b,f]pyrido[1,2-h][1]oxa[4]thia[5,8]diazacyclododecine-16-carboxylic acid 18,18-dioxide] cannot be ordered by pIC50: over 6.60 for the first, over 6.60 for the second.

`N#Cc1cc2c(cc1Cl)N1CCCCC1/C=C/COc1ccc(C(=O)O)cc1S(=O)(=O)N2` (racemic) [Example 35, (E)-3-chloro-2-cyano-6,7,8,9,9a,12-hexahydro-19H-dibenzo[b,f]pyrido[1,2-h][1]oxa[4]thia[5,8]diazacyclododecine-16-carboxylic acid 18,18-dioxide] and `N#Cc1cc2c(cc1Cl)N1CCCCC1COc1ccc(C(=O)O)cc1S(=O)(=O)N2` (single isomer, unassigned) [Example 17, 9-chloro-8-cyano-12,13,14,15,15a,16-hexahydro-6H-dibenzo[b,f]pyrido[1,2-h][1,4,5,8]oxathiadiazecine-3-carboxylic acid 5,5-dioxide] cannot be ordered by pIC50: over 6.60 for the first, over 6.60 for the second.

First: CS(=O)(=O)c1ccc2c(c1)NS(=O)(=O)c1cc(C(=O)O)ccc1OCCCC1CCCCN21 (single isomer, unassigned) [Example 50, 2-(methylsulfonyl)-6,7,8,9,9a,10,11,12-octahydro-19H-dibenzo[b,f]pyrido[1,2-h][1]oxa[4]thia[5,8]diazacyclododecine-16-carboxylic acid 18,18-dioxide]
Second: N#Cc1cc2c(cc1F)N1CCCCC1CCCOc1ccc(C(=O)O)cc1S(=O)(=O)N2 (single isomer, unassigned) [Example 42, 2-cyano-3-fluoro-6,7,8,9,9a,10,11,12-octahydro-19H-dibenzo[b,f]pyrido[1,2-h][1]oxa[4]thia[5,8]diazacyclododecine-16-carboxylic acid 18,18-dioxide]
The pIC50 of the first is lower: 6.00 to 6.60 for the first, over 6.60 for the second.

`N#Cc1cc2c(cc1Cl)N1CCCC[C@H]1COCCCc1ccc(C(=O)O)cc1S(=O)(=O)N2` [Example 73, (S)-3-chloro-2-cyano-6,7,8,9,9a,10,13,14-octahydro-12H, 20H-dibenzo[e,i]pyrido[2,1-c][1]oxa[8]thia[4,7]diazacyclotridecine-17-carboxylic acid 19,19-dioxide] and `N#Cc1cc2c(cc1Cl)N1CCCC[C@@H]1CCCOc1ccc(C(=O)O)cc1S(=O)(=O)N2` [Example 59, (R)-3-chloro-2-cyano-6,7,8,9,9a,10,11,12-octahydro-19H-dibenzo[b,f]pyrido[1,2-h][1]oxa[4]thia[5,8]diazacyclododecine-16-carboxylic acid 18,18-dioxide] cannot be ordered by pIC50: over 6.60 for the first, over 6.60 for the second.

Compared with `CS(=O)(=O)NC(=O)c1ccc2c(c1)S(=O)(=O)Nc1cc(C#N)c(F)cc1N1CCCC[C@H]1CCCCO2` [Example 63, (S)-2-cyano-3-fluoro-N-(methylsulfonyl)-7,8,9,9a,10,11,12,13-octahydro-6H, 20H-dibenzo[b,f]pyrido[1,2-h][1]oxa[4]thia[5,8]diazacyclotridecine-17-carboxamide 19,19-dioxide], `N#Cc1cc2c(cc1F)N1CCCCC1CCCCOc1ccc(C(=O)O)cc1S(=O)(=O)N2` (single isomer, unassigned) [Example 56, 2-cyano-3-fluoro-7,8,9,9a,10,11,12,13-octahydro-6H,20H-dibenzo[b,f]pyrido[1,2-h][1]oxa[4]thia[5,8]diazacyclotridecine-17-carboxylic acid 19,19-dioxide] is higher in pIC50: under 6.00 for the first, over 6.60 for the second.

`N#Cc1ccc2c(c1)NS(=O)(=O)c1cc(C(=O)O)ccc1OC/C=C/CC1CCCCN21` (racemic) [Example 15, (E)-2-cyano-7,8,9,9a,10,13-hexahydro-6H, 20H-dibenzo[b,f]pyrido[1,2-h][1]oxa[4]thia[5,8]diazacyclotridecine-17-carboxylic acid 19,19-dioxide] and `N#Cc1cc2c(cc1F)N1CCCCC1COc1ccc(C(=O)O)cc1S(=O)(=O)N2` (single isomer, unassigned) [Example 38, 8-cyano-9-fluoro-12,13,14,15,15a,16-hexahydro-6H-dibenzo[b,f]pyrido[1,2-h][1,4,5,8]oxathiadiazecine-3-carboxylic acid 5,5-dioxide] cannot be ordered by pIC50: over 6.60 for the first, over 6.60 for the second.

In the case of `N#Cc1cc2c(cc1F)N1CCCCC1CCCOc1ccc(C(=O)O)cc1S(=O)(=O)N2` (racemic) [Example 29, 2-cyano-3-fluoro-6,7,8,9,9a,10,11,12-octahydro-19H-dibenzo[b,f]pyrido[1,2-h][1]oxa[4]thia[5,8]diazacyclododecine-16-carboxylic acid 18,18-dioxide], the pIC50 was over 6.60.
